Assay results: patent US7148380B2, “Bio-energy muscle relaxants” (priority 2000, dated 2006)

What was measured:
[1] = system: drug-induced asthma in guinea pig; test: Asthmatic latent period / drug-induced asthma in guinea pig (acetylcholine + histamine inhalation); type: in vivo
Method: Sensitive animals were chosen by aerosolized inhalation of asthma-inducing agents—a mixed solution of 2% acetylcholine with 0.1% histamine for 15 sec., inducing an asthmatic attack with severe difficulty in respiration and finally resulting in the animal body turned down. The time from beginning of the inhalation to animal turned down was recorded as an index named “turned down time” or asthmatic latent period. Those animals with turned down time less than 120 s. were selected for the study next day. […] Then the latent period was recorded for each of the animals.
(1) Screening animals: animal was put in a glass container, a mixed solution of 2% acetylcholine and 0.1% histamine was nebulized with a pressure of 400 mmHg and inhaled by the animals for 15 sec. Following the end of the inhalation, the time between beginning of the inhalation and the animal turned down due to bronchial spasm and dyspnea was recorded as asthmatic latent period. Those animals with a latent period beyond 120 s. were excluded, and those with a latent period less than 120 s were selected for study the next day.
(4) Measuring: Repeat the inhalation at 30 min, 4 h, and 24 h after administration of the drugs respectively. Asthmatic latent period was recorded, 6 minutes were taken as the maximum, and values beyond 6 min were counted as 6 min.
(5) Data analysis: Values were expressed as mean±sd, and paired for “t” and chi-square tests. Significance was considered to be established when p<0.05.

[2] = system: contraction of bronchial smooth muscle induced by histamine; test: By-pass-airflow pressure, bronchial smooth muscle contraction induced by histamine; type: in vivo, guinea pig
Method: The animals were divided as saline, BDM, and aminophylline groups. Each animal was anesthetized with pentobarbital (30 mg/kg, I.P.), the trachea was intubated and connected to respirator. Tidal volume and frequency of the respirator were adjusted to 6˜10 ml and 60˜70 breath/min. respectively.
A small hole on chest wall of the animal was made, resulting in pneumothorax to inhibit spontaneous respiration of the animal. A modified device was used for measuring by-pass-airflow pressure of the airway, reflecting alteration in airway resistance, therefore evaluating status of bronchial smooth muscle contraction induced by histamine. The by-pass-airflow pressures were measured before and at 10, 20, 30, 40, 50, and 60 min after administration of histamine (5˜10 μg, I.P.) as control values. […] Changes in by-pass-airflow pressure caused by histamine before and after saline, BDM, or aminophylline were compared.
A percentage of changes in the airflow pressures before and after administration of the histamine at different time points, defined as the change rate, was calculated according to formula 1 below: Change rate (%)=(PA−PB)/PB×100% (1)
where PA is the airflow pressure after histamine, PB is the pressure before histamine. Values were expressed as mean±SD, paired or group “t” test was used upon the requirement for the statistical analysis. The results were considered significant when p<0.05.

[3] = system: hypertension induced by aramine; test: Aramine-induced hypertension, preventive test; type: in vivo, SD rats
Method: (§1) Eighteen (18) SD rats (provided by the Center of Experimental Animals, First Military Medical University, Guang Zhou, China, Certificate No. 99A046) with body weight of 200–250 g were used for the study. The animal was anesthetized with urethane (1.4 g/kg, I.P.), then the main cervical artery was exposed and cannulated, blood pressure was monitored during the experiment. After a 30-minute stabilization period after the operation, normal blood pressure curves were recorded.

[4] = system: hypertension induced by aramine; test: Aramine-induced hypertension, curative test; type: in vivo, SD rats
Method: as §1

[5] = 10 ml/kg I.P. (BDM 0.2M, aminophylline 1.25%), mean±sd
[6] = after drug 10 ml/kg I.P., 10 min after histamine
[7] = after drug 10 ml/kg I.P., 20 min after histamine
[8] = after drug 10 ml/kg I.P., 30 min after histamine
[9] = after drug 10 ml/kg I.P., 40 min after histamine
[10] = after drug 10 ml/kg I.P., 50 min after histamine
[11] = after drug 10 ml/kg I.P., 60 min after histamine
[12] = before drug administration, 10 min after histamine
[13] = before drug administration, 20 min after histamine
[14] = before drug administration, 30 min after histamine
[15] = before drug administration, 40 min after histamine
[16] = before drug administration, 50 min after histamine
[17] = before drug administration, 60 min after histamine
[18] = BDM 0.2 M, 10 ml/kg, I.P. after aramine
[19] = control fluctuating within ±15 mmHg

SMILES: CC(=O)C(C)=NO [BDM, 2,3-butanedione monoxime]
- Asthamatic Latent Period, 4 hours after administration [1, 5]: 99.2 ± 42.1 s
- Asthamatic Latent Period, 24 hours after administration [1, 5]: 81.8 ± 11.0 s
- Incidence of asthmatic spasm ([1]; 30 min after administration, down from 100%, not significant): 60%
- Asthamatic Latent Period, before administration ([1]; baseline before drug, 10 ml/kg I.P. (BDM 0.2M, aminophylline 1.25%), mean±sd): 70.4 ± 21.1 s
- Effect on the latent period ([1]; four and 24 h after administration): no significant effect
- by-pass-airflow pressure, A, B. Hist ([2]; after drug 10 ml/kg I.P. (BDM 0.2M, aminophylline 1.25%), before histamine): 3.86 ± 0.23 Kpa
- by-pass-airflow pressure, A, Hist 10 min. [2, 6]: 3.42 ± 0.21 Kpa
- changing rate of by-pass-airflow pressure, A, Hist 10 min. [2, 6]: −11.37%
- by-pass-airflow pressure, A, Hist 20 min. [2, 7]: 3.54 ± 0.21 Kpa
- changing rate of by-pass-airflow pressure, A, Hist 20 min. [2, 7]: −8.22%
- by-pass-airflow pressure, A, Hist 30 min. [2, 8]: 3.56 ± 0.27 Kpa
- changing rate of by-pass-airflow pressure, A, Hist 30 min. [2, 8]: −7.80%
- by-pass-airflow pressure, A, Hist 40 min. [2, 9]: 3.60 ± 0.28 Kpa
- changing rate of by-pass-airflow pressure, A, Hist 40 min. [2, 9]: −6.77%
- by-pass-airflow pressure, A, Hist 50 min. [2, 10]: 3.62 ± 0.29 Kpa
- changing rate of by-pass-airflow pressure, A, Hist 50 min. [2, 10]: −6.25%
- by-pass-airflow pressure, A, Hist 60 min. [2, 11]: 3.66 ± 0.26 Kpa
- changing rate of by-pass-airflow pressure, A, Hist 60 min. [2, 11]: −5.11%
- histamine-induced increase in the airflow pressure ([2]; at 10, 20, 30, 40, and 50 min after administration, p<0.01 or p<0.05): significantly reduce
- by-pass-airflow pressure, B, Hist 10 min. [2, 12]: 3.67 ± 0.16 Kpa
- changing rate of by-pass-airflow pressure, B, Hist 10 min. [2, 12]: 2.13%
- by-pass-airflow pressure, B, Hist 20 min. [2, 13]: 3.76 ± 0.32 Kpa
- changing rate of by-pass-airflow pressure, B, Hist 20 min. [2, 13]: 4.49%
- by-pass-airflow pressure, B, Hist 30 min. [2, 14]: 3.72 ± 0.21 Kpa
- changing rate of by-pass-airflow pressure, B, Hist 30 min. [2, 14]: 3.52%
- by-pass-airflow pressure, B, Hist 40 min. [2, 15]: 3.72 ± 0.18 Kpa
- changing rate of by-pass-airflow pressure, B, Hist 40 min. [2, 15]: 3.56%
- by-pass-airflow pressure, B, Hist 50 min. [2, 16]: 3.67 ± 0.23 Kpa
- changing rate of by-pass-airflow pressure, B, Hist 50 min. [2, 16]: 2.06%
- by-pass-airflow pressure, B, Hist 60 min. [2, 17]: 3.68 ± 0.11 Kpa
- changing rate of by-pass-airflow pressure, B, Hist 60 min. [2, 17]: 2.54%
- by-pass-airflow pressure, B, B. Hist ([2]; before drug administration, before histamine): 3.60 ± 0.26 Kpa
- changing rate of by-pass-airflow pressure, D, Hist 10 min. ([2]; difference A minus B, 10 min after histamine): −13.50%
- changing rate of by-pass-airflow pressure, D, Hist 20 min. ([2]; difference A minus B, 20 min after histamine): −12.72%
- changing rate of by-pass-airflow pressure, D, Hist 30 min. ([2]; difference A minus B, 30 min after histamine): −11.33%
- changing rate of by-pass-airflow pressure, D, Hist 40 min. ([2]; difference A minus B, 40 min after histamine): −10.34%
- changing rate of by-pass-airflow pressure, D, Hist 50 min. ([2]; difference A minus B, 50 min after histamine): −8.31%
- changing rate of by-pass-airflow pressure, D, Hist 60 min. ([2]; difference A minus B, 60 min after histamine): −7.65%
- Diastolic pressure 2 minutes after BDM administration ([3]; BDM 0.2 M, 10 ml/kg, I.P.): 39.7 ± 6.4^★★ mmHg
- Diastolic pressure 5 minutes after BDM administration ([3]; BDM 0.2 M, 10 ml/kg, I.P.): 39.0 ± 8.7^★★ mmHg
- Diastolic pressure 10 minutes after BDM administration ([3]; BDM 0.2 M, 10 ml/kg, I.P.): 43.0 ± 8.5^★★ mmHg
- Systolic pressure 2 minutes after BDM administration ([3]; BDM 0.2 M, 10 ml/kg, I.P.): 88.0 ± 5.2^★★ mmHg
- Systolic pressure 5 minutes after BDM administration ([3]; BDM 0.2 M, 10 ml/kg, I.P.): 84.0 ± 6.7^★★ mmHg
- Systolic pressure 10 minutes after BDM administration ([3]; BDM 0.2 M, 10 ml/kg, I.P.): 88.2 ± 7.7^★★ mmHg
- Diastolic pressure 2 minutes after aramine administration ([3]; BDM given before aramine): 76.2 ± 21.5^★★ mmHg
- Diastolic pressure 5 minutes after aramine administration ([3]; BDM given before aramine): 76.5 ± 11.9^★★ mmHg
- Diastolic pressure 10 minutes after aramine administration ([3]; BDM given before aramine): 77.0 ± 22.4^★★ mmHg
- Systolic pressure 5 minutes after aramine administration ([3]; BDM given before aramine): 127.5 ± 16.1^★★ mmHg
- Systolic pressure 10 minutes after aramine administration ([3]; BDM given before aramine): 127.7 ± 17.3^★★ mmHg
- Systolic pressure 2 minutes after aramine administration ([3]; BDM given before aramine 30 μg/ml, 0.4 ml/min I.V.): 126.3 ± 16.1^★★ mmHg
- Diastolic pressure, Blood Pressure before ([3]; baseline, mean±SD, n=6–7): 68.7 ± 8.8 mmHg
- Systolic pressure, Blood Pressure before ([3]; baseline, mean±SD, n=6–7): 117.3 ± 3.2 mmHg
- Diastolic blood pressure following aramine administration in BDM group ([3]; control about 120): ~75 mmHg
- Systolic blood pressure following aramine administration in BDM group ([3]; control about 185): about 125 mmHg
- Diastolic blood pressure after administration of BDM ([3]; down from 68, approximately): ~40 mmHg
- Systolic blood pressure after administration of BDM ([3]; down from 117, approximately): ~84 mmHg
- Diastolic pressure 2 min. after BDM administration [4, 18]: 73.8 ± 4.9^★★ mmHg
- Diastolic pressure 5 min. after BDM administration [4, 18]: 77.0 ± 9.1^★★ mmHg
- Diastolic pressure 10 min. after BDM administration [4, 18]: 76.3 ± 5.2^★★ mmHg
- Systolic pressure 2 min. after BDM administration [4, 18]: 123.7 ± 6.0^★★ mmHg
- Systolic pressure 5 min. after BDM administration [4, 18]: 128.3 ± 5.2^★★ mmHg
- Systolic pressure 10 min. after BDM administration [4, 18]: 130.5 ± 4.2^★★ mmHg
- Diastolic pressure, Blood Pressure before ([4]; baseline, mean±SD, n=6–7): 74.0 ± 15.4 mmHg
- Systolic pressure, Blood Pressure before ([4]; baseline, mean±SD, n=6–7): 123.3 ± 10.1 mmHg
- Diastolic pressure 2 min. after aramin administration ([4]; before BDM): 121.5 ± 5.5 mmHg
- Diastolic pressure 5 min. after aramin administration ([4]; before BDM): 122.2 ± 5.1 mmHg
- Diastolic pressure 10 min. after aramin administration ([4]; before BDM): 117.7 ± 9.5 mmHg
- Systolic pressure 2 min. after aramin administration ([4]; before BDM): 182.7 ± 6.0 mmHg
- Systolic pressure 5 min. after aramin administration ([4]; before BDM): 183.5 ± 5.5 mmHg
- Systolic pressure 10 min. after aramin administration ([4]; before BDM): 181.8 ± 6.4 mmHg
- Average decrease of diastolic blood pressure after BDM administration [4, 19]: 42 mmHg
- Average decrease of systolic blood pressure after BDM administration [4, 19]: 54 mmHg
